Data on seven compounds can be found in patent US20240383915A1, “OXAZEPINE COMPOUNDS AND USES THEREOF IN THE TREATMENT OF CANCER” (Genentech, Inc., priority 2021, published 2024).

As usually defined, the IC50 is the concentration that gives 50% inhibition.

One assay addresses KRas(G12V) (Homo sapiens (Human), UniProt P01116, G12V). Put plainly: KRas(G12V) GDP HTRF (BODIPY-GDP exchange TR-FRET). The class given is biochemical.
The next assay has as its target KRas (Homo sapiens (Human), UniProt P01116). Put plainly: KRas GDP HTRF (BODIPY-GDP exchange TR-FRET). The class given is biochemical. In short, it runs like this:
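Inhibition of SOS1-mediated exchange of BODIPY-GDP on KRAS G12D, started with 3 nM recombinant human SOS1 and 300 nM BODIPY-GDP and read after 60 min. TR-FRET excitation 337 nm, ratio 520/490 nm ×10,000. IC50 from 4-parameter Hill fit of normalized data.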

In another assay the test system is SW480 cells. The experiment in a line: SW480 proliferation assay. The class given is cell-based. The note with it: Homo sapiens, SW480, SW480; read-out: SW480 Prolif IC50 (G12V).
The test system of a further assay is PC-9 cells. The experiment in a line: PC9 proliferation assay. The class given is cell-based, human. The following applies: Homo sapiens, PC-9, PC9; read-out: PC9 Prolif IC50 (G12V).

KRas(G12V), sequence (P01116-2 other isoform, or with tags, fused parts or gaps G12V): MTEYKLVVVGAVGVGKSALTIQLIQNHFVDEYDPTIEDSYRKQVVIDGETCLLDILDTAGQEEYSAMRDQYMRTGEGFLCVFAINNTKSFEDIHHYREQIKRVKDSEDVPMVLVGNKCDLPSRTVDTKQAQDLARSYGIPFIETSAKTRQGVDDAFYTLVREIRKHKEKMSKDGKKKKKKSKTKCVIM
KRas, sequence (P01116-2 other isoform, or with tags, fused parts or gaps): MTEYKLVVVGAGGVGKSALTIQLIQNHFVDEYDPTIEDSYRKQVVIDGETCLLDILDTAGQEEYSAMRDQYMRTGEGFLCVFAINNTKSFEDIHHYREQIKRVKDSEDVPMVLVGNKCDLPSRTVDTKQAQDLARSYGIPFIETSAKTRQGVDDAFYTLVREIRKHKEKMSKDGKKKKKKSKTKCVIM

On to `Cc1cc(N)nc(-c2cc3ncnc4c3c(c2Cl)OCCN4[C@@H](C)c2cccnc2N)c1C(F)(F)F` [Example 18, (S)-6-(4-(1-(2-aminopyridin-3-yl)ethyl)-8-chloro-5,6-dihydro-4H-[1,4]oxazepino[5,6,7-de]quinazolin-9-yl)-4-methyl-5-(trifluoromethyl)pyridin-2-amine], for which the IC50 against KRas(G12V) was 0.035 µM; at KRas, 0.2 µM; in the assay on SW480 cells, 20 µM; in the assay on PC-9 cells, 20 µM.

As to `Cc1cc(N)nc(-c2cc3ncnc4c3c(c2Cl)OC[C@H](CC#N)N4Cc2cccnc2N)c1C(F)(F)F` [Example 19, (S)-2-(9-(6-amino-4-methyl-3-(trifluoromethyl)pyridin-2-yl)-4-((2-aminopyridin-3-yl)methyl)-8-chloro-5,6-dihydro-4H-[1,4]oxazepino[5,6,7-de]quinazolin-5-yl)acetonitrile], the half-inhibitory concentration (IC50) at KRas(G12V) was 15 µM; on KRas, 200 µM; in the assay on SW480 cells, 5.7 µM; in the assay with PC-9 cells, 4.5 µM.

Consider `Cc1cc(N)nc(-c2cc3ncnc4c3c(c2Cl)OCCN4C(c2cccnc2N)C(F)(F)F)c1C(F)(F)F` (stereo not shown) [Example 20, 6-(4-(1-(2-aminopyridin-3-yl)-2,2,2-trifluoroethyl)-8-chloro-5,6-dihydro-4H-[1,4]oxazepino[5,6,7-de]quinazolin-9-yl)-4-methyl-5-(trifluoromethyl)pyridin-2-amine], for which the IC50 stood at 0.069 µM against KRas(G12V), 0.51 µM at KRas, 7.3 µM with SW480 cells and 8.7 µM in the assay on PC-9 cells.

Consider `CN1CCOc2c(Cl)c(-c3cccc4sc(N)nc34)cc3nc(OC[C@@]45CCCN4C[C@H](F)C5)nc1c23` [Example 23, 4-(8-chloro-2-(((2R,7aS)-2-fluorotetrahydro-1H-pyrrolizin-7a(5H)-yl)methoxy)-4-methyl-5,6-dihydro-4H-[1,4]oxazepino[5,6,7-de]quinazolin-9-yl)benzo[d]thiazol-2-amine], for which the IC50 on KRas(G12V) was determined as 0.0051 µM; against KRas, 0.029 µM; in the assay on SW480 cells, 5.1 µM; in the assay with PC-9 cells, 10 µM.

For `Cc1cc(N)nc(-c2cc3ncnc4c3c(c2Cl)OCCN4Cc2cncnc2N)c1C(F)(F)F` [Example 26, 5-((9-(6-amino-4-methyl-3-(trifluoromethyl)pyridin-2-yl)-8-chloro-5,6-dihydro-4H-[1,4]oxazepino[5,6,7-de]quinazolin-4-yl)methyl)pyrimidin-4-amine], the 50% inhibitory concentration (IC50) was determined as 0.053 µM on KRas(G12V), 0.33 µM at KRas, 9.7 µM in the assay on SW480 cells and 16 µM with PC-9 cells.

Regarding `Cc1cc(N)nc(-c2cc3ncnc4c3c(c2Cl)OCCN4C(c2cccnc2N)C2CC2)c1C(F)(F)F` (stereo not shown) [Example 28, 6-(4-((2-aminopyridin-3-yl)(cyclopropyl)methyl)-8-chloro-5,6-dihydro-4H-[1,4]oxazepino[5,6,7-de]quinazolin-9-yl)-4-methyl-5-(trifluoromethyl)pyridin-2-amine], the 50% inhibitory concentration (IC50) is 0.0082 µM at KRas(G12V), 0.11 µM at KRas, 7.8 µM in the assay with SW480 cells and 17 µM with PC-9 cells.

In the case of `Cc1cc(N)nc(-c2cc3nc(OC[C@@]45CCCN4CC4(C5)OCCO4)nc4c3c(c2Cl)OCCN4Cc2cccnc2N)c1C(F)(F)F` [Example 35, (S)-6-(4-((2-aminopyridin-3-yl)methyl)-8-chloro-2-((dihydro-1H,3H-spiro[pyrrolizine-2,2′-[1,3]dioxolan]-7a(5H)-yl)methoxy)-5,6-dihydro-4H-[1,4]oxazepino[5,6,7-de]quinazolin-9-yl)-4-methyl-5-(trifluoromethyl)pyridin-2-amine], the IC50 at KRas(G12V) is 0.00039 µM; against KRas, 0.00063 µM; with SW480 cells it was 0.78 µM; in the assay on PC-9 cells it was 1.7 µM.
